Source: patent US9771351B2, “Wnt signaling inhibitor” (KYOWA HAKKO KIRIN CO., LTD., priority 2013, dated 2017)
Like-named read-outs stand apart in the source and are kept apart here.

Tests used:
tankyrase-2 = target: T1, tankyrase-2 (Homo sapiens, UniProt Q9H2K2); experiment: Tankyrase-2 enzyme inhibition test (Tankyrase-2 Chemiluminescent Assay Kit); assay type: biochemical; conditions: autoribosylation of GST-tankyrase-2 fusion protein, chemiluminescence
T1 construct: purchased BPS Bioscience, Inc. 80566
T1 sequence (Q9H2K2 1-1166): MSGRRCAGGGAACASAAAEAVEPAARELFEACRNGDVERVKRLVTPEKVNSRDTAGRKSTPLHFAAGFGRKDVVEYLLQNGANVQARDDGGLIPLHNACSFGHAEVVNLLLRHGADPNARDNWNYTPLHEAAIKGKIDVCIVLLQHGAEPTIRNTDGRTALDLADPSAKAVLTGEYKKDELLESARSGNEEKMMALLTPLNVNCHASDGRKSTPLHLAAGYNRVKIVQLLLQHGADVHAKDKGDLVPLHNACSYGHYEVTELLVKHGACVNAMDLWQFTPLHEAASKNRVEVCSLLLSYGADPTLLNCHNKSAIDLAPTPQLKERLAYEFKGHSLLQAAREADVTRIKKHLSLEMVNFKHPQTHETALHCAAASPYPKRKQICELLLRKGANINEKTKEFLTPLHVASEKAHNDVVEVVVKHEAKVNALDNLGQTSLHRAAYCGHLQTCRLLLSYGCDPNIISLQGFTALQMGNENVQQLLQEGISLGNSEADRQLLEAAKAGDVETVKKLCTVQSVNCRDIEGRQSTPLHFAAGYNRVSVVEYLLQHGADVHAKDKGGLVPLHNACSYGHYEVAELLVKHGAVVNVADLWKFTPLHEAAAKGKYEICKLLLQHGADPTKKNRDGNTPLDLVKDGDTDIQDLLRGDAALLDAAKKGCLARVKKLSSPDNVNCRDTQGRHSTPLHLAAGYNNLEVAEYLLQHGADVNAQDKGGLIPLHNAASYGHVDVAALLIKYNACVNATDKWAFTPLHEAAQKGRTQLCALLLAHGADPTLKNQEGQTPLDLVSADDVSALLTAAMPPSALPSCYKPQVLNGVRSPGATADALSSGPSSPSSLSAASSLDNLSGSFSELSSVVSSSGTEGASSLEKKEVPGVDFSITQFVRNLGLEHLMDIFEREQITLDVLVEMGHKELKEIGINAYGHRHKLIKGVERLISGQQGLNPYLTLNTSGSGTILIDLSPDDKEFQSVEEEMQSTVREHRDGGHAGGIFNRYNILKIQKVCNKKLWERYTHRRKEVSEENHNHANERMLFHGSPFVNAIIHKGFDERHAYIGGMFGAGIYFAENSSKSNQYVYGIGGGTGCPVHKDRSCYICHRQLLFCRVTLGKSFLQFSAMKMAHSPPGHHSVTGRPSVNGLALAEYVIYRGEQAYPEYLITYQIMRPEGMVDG
Protocol: Test Example 2: Tankyrase-2 Enzyme Inhibition Test
The enzyme activity of tankyrase-2 was evaluated using Tankyrase-2 Chemiluminescent Assay Kit (BPS Bioscience, Inc., Catalog No. 80566). The Tankyrase-2 Chemiluminescent Assay Kit is a kit for evaluating the enzyme activity of tankyrase-2 using autoribosylation of glutathione-S-transferase (GST)-tankyrase-2 fusion protein as an index. All the experimental materials except for PBS (PBST) buffer containing phosphate-buffered saline (PBS) and 0.05% Tween 20 are all included in the kit. The GST-tankyrase-2 enzyme diluted with 50 μL of 1× tankyrase buffer was added to the wells of a 96-well plate coated with glutathione. After the plate was left to stand overnight at 4° C., the plate was washed 3 times with the PBST buffer. 150 μL of blocking buffer was added thereto, and the plate was left to stand at room temperature for 30 minutes to block the wells. The plate was washed 3 times with the PBST buffer. Before the ribosylation reaction, an assay mixture containing a biotinylated substrate and a test compound diluted with 1× tankyrase buffer were mixed, whereby a reaction mixture was prepared. In order to start the ribosylation reaction, 50 μL of the reaction mixture was added to the wells. In a blank well, 1× tankyrase buffer was added in place of the reaction mixture containing a biotinylated substrate. The plate was left to stand at 30° C. for 1 hour. After the reaction, the plate was washed 3 times with the PBST buffer. Streptavidin-horseradish peroxidase (HRP) was diluted to 50-fold with the blocking buffer. The diluted streptavidin-HRP was added to the wells, and the plate was left to stand at room temperature for 30 minutes. The plate was washed 3 times with the PBST buffer. Immediately before use, 50 μL of the HRP chemiluminescent substrate A and 50 μL of the HRP chemiluminescent substrate B were mixed and 100 μL of the resulting mixture was added to the wells. The chemiluminescence was measured using a chemiluminescence measuring apparatus. The inhibition ratio was obtained according to the following formula 2. [Math. 2] Inhibition ratio (%)=100−{(chemiluminescence intensity when test compound was added)−(chemiluminescence intensity of blank)}/{(chemiluminescence intensity of control)−(chemiluminescence intensity of blank)}×100 Formula 2

[1] = tested on: T-cell factor (TCF)-luciferase reporter using Wnt pathway as index; experiment: Inhibitory activity against TCF-luciferase reporter using Wnt pathway as index (DLD-1/TCF-Luc cells); assay type: cell-based, human; conditions: for inhibition at 1 µM: Homo sapiens, read-out: Inhibition ratio (%) at 1 μmol/L
Protocol: Test Example 1: Inhibitory Activity Against T-Cell Factor (TCF)-Luciferase Reporter Using Wnt Pathway as Index
The inhibitory activity of test compounds against Wnt pathway was evaluated by the following method.
A human colorectal adenocarcinoma cell line DLD-1 (Japanese Collection of Research Bioresources) was cultured in RPMI-1640 medium (Gibco/Life Technologies, Inc.) containing 10% fetal bovine serum (Gibco/Life Technologies, Inc.), 10 mmol/L of a 4-(2-hydroxyethyl)-1-piperazineethanesulfonic acid (HEPES) buffer solution (Gibco/Life Technologies, Inc.), 1 mmol/L of a sodium pyruvate solution (Gibco/Life Technologies, Inc.), 4.5 g/L of a D-(+)-glucose solution (Sigma-Aldrich, Inc.), 100 units/mL penicillin (Gibco/Life Technologies, Inc.) and 100 μg/mL of streptomycin (Gibco/Life Technologies, Inc.) under the conditions of 37° C. and 5% carbon dioxide gas. The DLD-1 cells were seeded in a 10 cm dish, and 20 μg of a luciferase gene plasmid pGL4.27 having a TCF responsive sequence inserted therein was transfected into the cells using 10 μL of Attractene (Qiagen, Inc.) according to the protocol attached to the product. A stably expressing cell line (DLD-1/TCF-Luc) was selected using […] of hygromycin B (Wako Pure Chemical Industries Ltd.). The DLD-1/TCF-Luc cells were detached with trypsin and seeded in a 384-well plate, and a test compound was added at different concentrations. After 18 hours, the luciferase activity was measured using Steady-Glo™ Luciferase Assay System (Promega, Inc.).
The inhibition ratio was obtained according to the following formula 1. The inhibition ratio (%) of the compound of the present invention at 1 μmol/L against the TCF-luciferase reporter using the Wnt pathway as an index is shown in Table 6. [Math. 1] Inhibition ratio (%)=100−{(luciferase activity when test compound was added)−(luciferase activity of blank)}/{(luciferase activity of control)−(luciferase activity of blank)}×100 Formula 1

[2] = 1 μmol/L, DLD-1/TCF-Luc cells, luciferase activity after 18 hours

Compound | Inhibition ratio (%) at 1 μmol/L (tankyrase-2) [%] | inhibition at 1 µM ([1]; DLD-1, 18 h) [%] | Inhibition ratio (%) at 1 μmol/L [1, 2] [%] | inhibition at 1 µM [1, 2] [%]
COc1cc2ncnc(N3CCC(CN4Cc5ccccc5N(c5ccnc(C#N)c5)C4=O)CC3)c2cc1OC [Compound 9, 4-(3-{[1-(6,7-Dimethoxyquinazolin-4-yl)piperidin-4-yl]methyl}-2-oxo-3,4-dihydroquinazolin-1(2H)-yl)picolinonitrile] | 91 | 74 |  | 
N#Cc1cc(N2C(=O)N(CC3CCN(c4ncnc5[nH]c(=O)[nH]c45)CC3)Cc3ccccc32)ccn1 [Compound 36, 4-(2-Oxo-1-{[1-(8-oxo-8,9-dihydro-7H-purin-6-yl)piperidin-4-yl]methyl}-3,4-dihydroquinazolin-1(2H)-yl)picolinonitrile] | 88 |  | 79 | 
COc1cc2ncnc(N3CCC(CN4Cc5ccncc5N(c5ccnc(C#N)c5)C4=O)CC3)c2cc1OC [Compound 21, 4-(3-{[1-(6,7-Dimethoxyquinazolin-4-yl)piperidin-4-yl]methyl}-2-oxo-3,4-dihydropyrido[3,4-d]pyrimidin-1(2H)-yl)picolinonitrile] | 93 |  |  | 76
N#Cc1cc(N2C(=O)N(CC3CCN(c4ncnc5cc(N)cnc45)CC3)Cc3ccccc32)ccn1 [Compound 41, 4-(3-{[1-(7-Aminopyrido[3,2-d]pyrimidin-4-yl)piperidin-4-yl]methyl}-2-oxo-3,4-dihydroquinazolin-1(2H)-yl)picolinonitrile] | 92 | 81 |  | 
COc1ccc2c(c1)CN(CC1CCN(c3nccc4nc[nH]c(=O)c34)CC1)C(=O)N2c1ccnc(C(N)=O)c1 [Compound 48, 4-(6-Methoxy-2-oxo-3-{[1-(4-oxo-3,4-dihydropyrido[4,3-d]pyrimidin-5-yl)piperidin-4-yl]methyl}-3,4-dihydroquinazolin-1(2H)-yl)picolinamide] | 93 |  |  | 84
COc1cc2ncnc(N3CCC(CN4Cc5cc(S(C)(=O)=O)ccc5N(Cc5ccccc5C#N)C4=O)CC3)c2cc1OC [Compound 5, 2-[(3-{[1-(6,7-Dimethoxyquinazolin-4-yl)piperidin-4-yl]methyl}-6-(methylsulfonyl)-2-oxo-3,4-dihydroquinazolin-1(2H)-yl)methyl]benzonitrile] | 94 |  |  | 84
COc1cc2ncnc(N3CCC(CN4Cc5cccnc5N(c5ccnc(C#N)c5)C4=O)CC3)c2cc1OC [Compound 22, 4-(3-{[1-(6,7-Dimethoxyquinazolin-4-yl)piperidin-4-yl]methyl}-2-oxo-3,4-dihydropyrido[2,3-d]pyrimidin-1(2H)-yl)picolinonitrile] | 98 |  |  | 75
N#Cc1cc(N2C(=O)N(CC3CCN(c4cccc5n[nH]c(=O)n45)CC3)Cc3ccccc32)ccn1 [Compound 38, 4-(2-Oxo-3-{[1-(3-oxo-2,3-dihydro-[1,2,4]triazolo[4,3-a]pyridin-5-yl)piperidin-4-yl]methyl}-3,4-dihydroquinazolin-1(2H)-yl)picolinonitrile] | 94 | 89 |  | 
N#Cc1cccc(N2C(=O)N(CC3CCN(c4ncnc5c[n+]([O-])ccc45)CC3)Cc3ccccc32)c1 [Compound 29, 4-(4-{[1-(3-Cyanophenyl)-2-oxo-1,2-dihydroquinazolin-3(4H)-yl]methyl}piperidin-1-yl)pyrido[3,4-d]pyrimidine-7-oxide] | 87 | 74 |  | 
COc1cc2ncnc(N3CCC(CN4Cc5ccccc5N(c5c[nH]c(=O)c(C#N)c5)C4=O)CC3)c2cc1OC [Compound 12, 5-(3-{[1-(6,7-Dimethoxyquinazolin-4-yl)piperidin-4-yl]methyl}-2-oxo-3,4-dihydroquinazolin-1(2H)-yl)-2-oxo-1,2-dihydropyridine-3-carbonitrile] | 88 |  |  | 80
COc1cc2ncnc(N3CCC(CN4Cc5ccccc5N(C5CCOCC5)C4=O)CC3)c2cc1OC [Compound 16, 3-{[1-(6,7-Dimethoxyquinazolin-4-yl)piperidin-4-yl]methyl}-1-(tetrahydro-2H-pyran-4-yl)-3,4-dihydroquinazolin-2(1H)-one] | 71 |  |  | 63
COc1cc2ncnc(N3CCC(CN4Cc5ccccc5N(c5cccc(S(N)(=O)=O)c5)C4=O)CC3)c2cc1OC [Compound 13, 3-(3-{[1-(6,7-Dimethoxyquinazolin-4-yl)piperidin-4-yl]methyl}-2-oxo-3,4-dihydroquinazolin-1(2H)-yl)benzenesulfonamide] | 89 |  |  | 80
COc1cncnc1N1CCC(CN2Cc3ccccc3N(c3ccnc(C#N)c3)C2=O)CC1 [Compound 32, 4-(3-{[1-(5-Methoxypyrimidin-4-yl)piperidin-4-yl]methyl}-2-oxo-3,4-dihydroquinazolin-1(2H)-yl)picolinonitrile] | 94 | 76 |  | 
N#Cc1cccc(N2C(=O)N(CC3CCN(c4ncnc5cc(C(=O)O)ccc45)CC3)Cc3ccccc32)c1 [Compound 25, 4-(4-{[1-(3-Cyanophenyl)-2-oxo-1,2-dihydroquinazolin-3(4H)-yl]methyl}piperidin-1-yl)quinazoline-7-carboxylic acid] | 81 | 86 |  | 
